Source: patent US8778966B2, “Quinolinone derivatives as PARP and tank inhibitors” (Janssen Pharmaceutica, NV, priority 2007, dated 2014)
Like-named read-outs stand apart in the source and are kept apart here.

Experiments:
[1] = tested on: HCT116 cells; test: Antiproliferative activity, Alamar Blue assay, HCT116 cells; type: cell-based, human; conditions: Homo sapiens, HCT-116, HCT116 cells, read-out: HCT116 antiproliferative activity pIC50 (converted)
Procedure, shortened: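 HCT116 cells seeded, adhered 24 h, then exposed to compound for 4 days; Alamar Blue (resazurin) added for 4 h at 37 °C, fluorescence read at 540/590 nm. Viability as % of untreated control, triplicate wells; IC50 by probit analysis, reported as pIC50.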

[2] = target: T1, Human PARP-1 enzyme (Homo sapiens, UniProt P09874); test: In vitro Scintillation Proximity Assay (SPA) for PARP-1 inhibitory activity; type: biochemical; conditions: read-out: in vitro SPA assay PARP-1 pIC50 (converted)
T1 construct: purchased Trevigen
T1 sequence (P09874 whole entry): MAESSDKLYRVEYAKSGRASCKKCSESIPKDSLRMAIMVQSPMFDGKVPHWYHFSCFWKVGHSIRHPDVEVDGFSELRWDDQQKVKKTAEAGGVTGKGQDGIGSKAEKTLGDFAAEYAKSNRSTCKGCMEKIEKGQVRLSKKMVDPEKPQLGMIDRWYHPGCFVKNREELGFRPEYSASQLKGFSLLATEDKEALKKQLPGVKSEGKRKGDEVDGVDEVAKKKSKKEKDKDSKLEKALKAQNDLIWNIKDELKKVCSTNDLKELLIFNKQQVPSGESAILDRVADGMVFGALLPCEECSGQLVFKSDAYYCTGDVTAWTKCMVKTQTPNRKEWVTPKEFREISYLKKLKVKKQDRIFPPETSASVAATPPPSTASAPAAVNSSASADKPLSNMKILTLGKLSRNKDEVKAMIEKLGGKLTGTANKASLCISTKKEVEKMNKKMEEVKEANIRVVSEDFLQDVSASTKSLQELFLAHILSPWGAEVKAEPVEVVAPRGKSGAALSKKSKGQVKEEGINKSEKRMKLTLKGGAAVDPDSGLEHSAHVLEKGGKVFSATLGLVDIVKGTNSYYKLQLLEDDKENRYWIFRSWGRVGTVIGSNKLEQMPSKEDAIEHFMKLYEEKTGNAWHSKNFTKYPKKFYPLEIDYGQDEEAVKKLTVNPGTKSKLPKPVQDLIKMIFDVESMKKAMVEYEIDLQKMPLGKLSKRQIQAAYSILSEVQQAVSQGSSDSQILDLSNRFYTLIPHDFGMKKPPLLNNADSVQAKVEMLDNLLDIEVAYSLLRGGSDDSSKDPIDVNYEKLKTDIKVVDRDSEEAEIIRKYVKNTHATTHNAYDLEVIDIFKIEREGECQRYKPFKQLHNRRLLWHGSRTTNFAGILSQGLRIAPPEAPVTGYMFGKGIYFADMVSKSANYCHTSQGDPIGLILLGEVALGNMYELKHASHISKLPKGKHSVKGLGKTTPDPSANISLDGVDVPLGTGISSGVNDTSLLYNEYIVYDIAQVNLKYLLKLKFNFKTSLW
Procedure, shortened: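 SPA assay: nicked-DNA-activated PARP-1 (0.1–0.2 μg/ml) ADP-ribosylates biotinylated histones (2 μg/ml) using [3H]-NAD+, 20 min at RT in Tris pH 8/DTT/MgCl2, stopped with 2 mM NAD+. Blank-subtracted cpm expressed as % control; IC50 by linear interpolation, reported as pIC50 (10−5 to 3×10−9 M tested).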

SMILES: CCc1cc2c(OC)cc(C(C)(C#N)Cc3nc(OC)cc(OC)n3)cc2[nH]c1=O (single isomer, unassigned) [Compound 230]
- IC50 ([1]; Alamar Blue): 1580 nM
- IC50 [2]: 63.1 nM

SMILES: CCc1cc2ccc(C(C)(C#N)Cc3cc(C#N)nc(N(C)C)c3)cc2[nH]c1=O (centres unmarked) [Compound 325]
- IC50 [1]: 794 nM
- IC50 [2]: 79.4 nM

SMILES: Cc1cc2ccc(C(C)(C#N)Cc3cccc(I)c3)cc2[nH]c1=O (centres unmarked) [Compound 256]
- IC50 ([1]; Alamar Blue): 398 nM
- IC50 [2]: 126 nM

SMILES: CCc1cc2ccc(C(C#N)(Cc3ccccc3)C3CC3)cc2[nH]c1=O (centres unmarked) [Compound 29]
- IC50 [1]: 1260 nM
- IC50 [2]: 631 nM

SMILES: CCc1cc2ccc(C(C)(C#N)Cc3cc(N(C)C)nc(C)n3)cc2[nH]c1=O (centres unmarked) [Compound 322]
- IC50 ([1]; Alamar Blue): 2000 nM
- IC50 [2]: 200 nM

SMILES: CCc1cc2ccc([C@@](C)(C#N)CCOc3ccc(C#N)cc3)cc2[nH]c1=O (single isomer, unassigned) [Compound 273]
- IC50 ([1]; Alamar Blue): 398 nM
- IC50 [2]: 79.4 nM

SMILES: CCc1cc2ccc(C(C)(C#N)Cc3cc(OC)ccc3F)cc2[nH]c1=O (centres unmarked) [Compound 171]
- IC50 [1]: 126 nM
- IC50 [2]: 20 nM

SMILES: CCc1cc2ccc(C(C)(C#N)Cc3c4ccccc4nn3C)cc2[nH]c1=O (centres unmarked) [Compound 347]
- IC50 [1]: 3160 nM
- IC50 [2]: 158 nM

SMILES: CCc1cc2ccc(C(C)(C#N)CN(C)Cc3ccc(C#N)cc3)cc2[nH]c1=O (centres unmarked) [Compound 300]
- IC50 ([1]; Alamar Blue): 631 nM
- IC50 [2]: 158 nM

SMILES: CCc1cc2ccc(C(C)(C#N)Cc3cc(C(F)(F)F)ccc3F)cc2[nH]c1=O (centres unmarked) [Compound 283]
- IC50 ([1]; Alamar Blue): 794 nM
- IC50 [2]: 79.4 nM

SMILES: CCc1cc2ccc(C(C)(C#N)Cc3cc(C(C)C)ccc3OC)cc2[nH]c1=O (centres unmarked) [Compound 288]
- IC50 ([1]; Alamar Blue): 10000 nM
- IC50 [2]: 158 nM

SMILES: CCc1cc2ccc(C(C)(C#N)Cc3nc(OC)cc(N(C)C)n3)cc2[nH]c1=O (centres unmarked) [Compound 355]
- IC50 ([1]; Alamar Blue): 200 nM
- IC50 [2]: 50.1 nM

SMILES: CCc1cc2ccc(C(C)(C#N)Cc3cccc4c3CCN4)cc2[nH]c1=O (centres unmarked) [Compound 237]
- IC50 ([1]; Alamar Blue): 2510 nM
- IC50 [2]: 25.1 nM

SMILES: CCc1cc2ccc([C@](C)(C#N)Cc3cc(OC)nc(C)n3)cc2[nH]c1=O (single isomer, unassigned) [Compound 362]
- IC50 ([1]; Alamar Blue): 1000 nM
- IC50 [2]: 631 nM

SMILES: CCc1cc2ccc(C(C)(C#N)Cc3nc(C#N)cc(N(C)C)n3)cc2[nH]c1=O (centres unmarked) [Compound 318]
- IC50 ([1]; Alamar Blue): 631 nM
- IC50 [2]: 79.4 nM

SMILES: CCc1cc2ccc(C(C)(C#N)Cc3cccc(N(C)CCc4ccccc4)n3)cc2[nH]c1=O.Cl (centres unmarked) [Compound 220]
- IC50 ([1]; Alamar Blue): 2000 nM
- IC50 [2]: 398 nM

SMILES: Cc1cc2ccc([C@](C)(C#N)[C@H]3CCc4ccccc43)cc2[nH]c1=O [Compound 387]
- IC50 ([1]; Alamar Blue): 2510 nM
- IC50 [2]: 200 nM

SMILES: CCc1cc2ccc(C(C)(C#N)Cc3cc(Cl)nc(OC)c3)cc2[nH]c1=O (centres unmarked) [Compound 351]
- IC50 ([1]; Alamar Blue): 398 nM
- IC50 [2]: 63.1 nM

SMILES: CCc1cc2ccc(C(C#N)(Cc3ccccc3)C(C)C)cc2[nH]c1=O (centres unmarked) [Compound 30]
- IC50 [1]: 1260 nM
- IC50 [2]: 3160 nM
